target: T1, human TLR9 (Homo sapiens, UniProt Q9NR96); assay: HEK293-Blue-hTLR-9 cells assay; assay type: cell-based; conditions: HEK293-Blue-hTLR9 cells, ODN2006 stimulation, 20 hrs, SEAP reporter; read-out: HEK/hTLR9 IC50
T1 sequence (Q9NR96 26-1032): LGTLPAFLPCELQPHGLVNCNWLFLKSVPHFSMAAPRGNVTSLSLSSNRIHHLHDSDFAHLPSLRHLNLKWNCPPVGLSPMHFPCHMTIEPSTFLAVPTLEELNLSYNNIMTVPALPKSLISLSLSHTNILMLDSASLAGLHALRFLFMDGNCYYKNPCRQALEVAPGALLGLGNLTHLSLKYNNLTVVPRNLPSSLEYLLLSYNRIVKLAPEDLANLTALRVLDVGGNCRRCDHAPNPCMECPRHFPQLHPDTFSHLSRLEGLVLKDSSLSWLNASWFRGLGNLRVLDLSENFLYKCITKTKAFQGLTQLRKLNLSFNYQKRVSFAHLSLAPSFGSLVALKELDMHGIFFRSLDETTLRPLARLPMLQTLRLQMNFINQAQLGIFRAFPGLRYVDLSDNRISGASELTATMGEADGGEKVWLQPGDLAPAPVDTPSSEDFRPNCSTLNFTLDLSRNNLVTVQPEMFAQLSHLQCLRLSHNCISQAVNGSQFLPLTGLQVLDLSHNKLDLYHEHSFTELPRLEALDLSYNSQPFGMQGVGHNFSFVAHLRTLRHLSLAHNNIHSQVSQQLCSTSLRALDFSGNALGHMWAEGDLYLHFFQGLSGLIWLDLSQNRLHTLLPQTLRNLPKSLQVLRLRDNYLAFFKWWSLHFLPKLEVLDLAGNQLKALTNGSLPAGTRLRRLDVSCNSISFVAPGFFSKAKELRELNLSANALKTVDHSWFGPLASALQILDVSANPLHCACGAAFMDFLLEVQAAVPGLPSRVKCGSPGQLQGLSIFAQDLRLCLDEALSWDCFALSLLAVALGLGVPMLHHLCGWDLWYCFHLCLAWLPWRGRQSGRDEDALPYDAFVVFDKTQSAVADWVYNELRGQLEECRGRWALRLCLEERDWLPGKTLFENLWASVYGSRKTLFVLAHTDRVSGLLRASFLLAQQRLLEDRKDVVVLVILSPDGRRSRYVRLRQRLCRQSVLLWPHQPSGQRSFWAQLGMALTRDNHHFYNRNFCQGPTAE
In short: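 Antagonist mode in HEK293-Blue hTLR9 reporter cells (SEAP under NF-κB/AP-1 sites), stimulated with ODN2006 added from a 20 uM solution. Serially diluted compound (1% DMSO final) was incubated 20 hrs at 37° C. Supernatant SEAP was developed with QUANTI-Blue for 2 h at 37° C and read at 620˜655 nm.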

Row | SMILES | IC50 [nM]
1 | C[C@@H]1CN(c2ccc(C#N)c3ncccc23)C[C@@H]2c3ccc(N4CC5CNCC(C4)O5)cc3CN12 [Example 14, 5-[(4R,10bS)-4-methyl-8-(9-oxa-3,7-diazabicyclo[3.3.1]nonan-3-yl)-3,4,6,10b-tetrahydro-1H-pyrazino[2,1-a]isoindol-2-yl]quinoline-8-carbonitrile] | 81.1
2 | C[C@@H]1CN(c2ccc(C#N)c3ncccc23)C[C@@H]2c3ccc(N4CCC(N)(CO)C4)cc3CN12 (stereo partly drawn) [Example 19, 5-[(4R,10bS)-8-[3-amino-3-(hydroxymethyl)pyrrolidin-1-yl]-4-methyl-3,4,6,10b-tetrahydro-1H-pyrazino[2,1-a]isoindol-2-yl]quinoline-8-carbonitrile] | 65.3
3 | C[C@@H]1CN(c2ccc(C#N)c3ncccc23)C[C@@H]2c3ccc(N4CCOC[C@H](N)C4)cc3CN12 [Example 54A, 5-[(4R,10bS)-8-[(6R)-6-amino-1,4-oxazepan-4-yl]-4-methyl-3,4,6,10b-tetrahydro-1H-pyrazino[2,1-a]isoindol-2-yl]quinoline-8-carbonitrile] | 92.2
4 | C[C@@H]1CN(c2ccc(C#N)c3ncccc23)C[C@@H]2c3ccc(NCCN(C)C)cc3CN12 [Example 26, 5-[(4R,10bS)-8-[2-(dimethylamino)ethylamino]-4-methyl-3,4,6,10b-tetrahydro-1H-pyrazino[2,1-a]isoindol-2-yl]quinoline-8-carbonitrile] | 55.8

Continued, values first:

Row | IC50 [nM] | SMILES
5 | 38 | C[C@@H]1CN(c2ccc(C#N)n3nccc23)C[C@@H]2c3ccc(N4C[C@H](N)[C@@H](O)C4)cc3CN12 [Example 111, 4-[(4R,10bS)-8-[(3S,4S)-3-amino-4-hydroxy-pyrrolidin-1-yl]-4-methyl-3,4,6,10b-tetrahydro-1H-pyrazino[2,1-a]isoindol-2-yl]pyrazolo[1,5-a]pyridine-7-carbonitrile]
6 | 70.5 | [2H]c1ccc2c(N3C[C@@H](C)N4Cc5cc(N[C@H]6CNC[C@H]6F)ccc5[C@H]4C3)ccc(C#N)c2n1 [Example 91, 5-[(4R,10bS)-8-[[(3S,4R)-4-fluoropyrrolidin-3-yl]amino]-4-methyl-3,4,6,10b-tetrahydro-1H-pyrazino[2,1-a]isoindol-2-yl]-2-deuterio-quinoline-8-carbonitrile]

From patent publication US12157746B2, “Tetrahydro-1H-pyrazino[2,1-a]isoindolylquinoline compounds for the treatment of autoimmune disease” (F. HOFFMANN-LA ROCHE AG, priority 2018, dated 2024)
